PubChem BioAssay (NCI)
Several values for one entry are separate records, joined by “and”; a condition that tells them apart may be missing. Equal values may be shown once.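 Grown in 96-well plates, cells were treated for 48 hours with each compound at five concentrations. Insufficient inhibition: endpoint recorded as highest concentration tested. GI50 marks 50% less growth. TGI denotes the concentration required for complete inhibition of growth.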

What was measured:
Assay in all cases: growth of human tumour cells (NCI), 48 h
[1] = tested on: HCC-2998 colon
[2] = tested on: MALME-3M melanoma
[3] = tested on: U251 CNS
[4] = tested on: NCI-H226 lung
[5] = tested on: HCT-116 colon
[6] = tested on: HL-60(TB) leukemia
[7] = tested on: COLO 205 colon
[8] = tested on: CCRF-CEM leukemia
[9] = tested on: T-47D breast
[10] = tested on: MCF7 breast

## NC1=NN(c2ccccc2)C(=O)C1C(=O)C(=O)Nc1ccc(Cl)c(Cl)c1 (centres undefined)
[1]
  TGI: > 100 µM
[2]
  TGI: > 100 µM
[3]
  TGI: > 100 µM
[4]
  TGI: > 100 µM
[5]
  TGI: > 100 µM
[6]
  TGI: > 100 µM
[7]
  TGI: > 100 µM
[8]
  TGI: > 100 µM

## Cc1cc(=O)n(-c2cc3cccccc-3n2)[nH]1
[1]
  TGI: 48.7 µM
[2]
  TGI: 9.84 µM
[3]
  TGI: 4.96 µM
[4]
  TGI: 44.4 µM
[5]
  TGI: 5.27 µM
[6]
  TGI: 11.6 µM
[7]
  TGI: 43.6 µM
[8]
  TGI: > 100 µM

## O=C(O)C1[O][Sb][O]C(C(=O)O)C1O (centres undefined)
[2]
  GI50: > 100 µM
  TGI: > 100 µM
[3]
  GI50: > 100 µM
  TGI: > 100 µM
[4]
  GI50: > 100 µM
  TGI: > 100 µM
[5]
  GI50: > 100 µM
  TGI: > 100 µM
[9]
  GI50: > 100 µM
  TGI: > 100 µM
[8]
  GI50: > 100 µM
  TGI: > 100 µM

## Cc1cccc(C)c1N1C(=O)C(=O)C(c2nc3ccccc3s2)/C(=N\N)C1=O (centres undefined)
[1]
  TGI: > 100 µM
[2]
  TGI: > 100 µM
[3]
  TGI: > 100 µM
[4]
  TGI: > 100 µM
[5]
  TGI: > 100 µM
[6]
  TGI: > 100 µM
[7]
  TGI: > 100 µM

## CCOc1ccccc1N=Nc1c(-c2ccccc2)nn(C(=O)CC(=O)Nc2cccc(C)c2)c1-c1ccccc1
[1]
  TGI: > 100 µM
[2]
  TGI: > 100 µM
[3]
  TGI: > 100 µM
[4]
  TGI: > 100 µM
[5]
  TGI: > 100 µM
[6]
  TGI: > 100 µM
[7]
  TGI: > 100 µM
[8]
  TGI: > 100 µM

## O=C(Nc1ccc(Cl)cc1Cl)OC(Cn1cncn1)c1ccc(Cl)cc1Cl (centres undefined)
[2]
  TGI: 29.3 µM
[3]
  TGI: 29.7 µM
[4]
  TGI: 39 µM
[5]
  TGI: 27.1 µM
[6]
  TGI: > 100 µM
[7]
  TGI: 31.5 µM
[8]
  TGI: > 100 µM

## COC(=O)C1=CC2C=CC(C1C(=O)OC)C1C(C(=O)OC)=C(C(=O)OC)C(C(=O)OC)=C(C(=O)OC)C21OC (centres undefined)
[1]
  TGI: > 100 µM
[2]
  TGI: > 100 µM
[3]
  TGI: > 100 µM
[4]
  TGI: > 100 µM
[5]
  TGI: > 100 µM
[6]
  TGI: > 100 µM
[7]
  TGI: > 100 µM

## COc1ccc(OC)c(/C=N/N=C(\N)NO)c1
[2]
  TGI: > 100 µM
[3]
  TGI: > 100 µM
[4]
  TGI: > 100 µM
[5]
  TGI: > 100 µM
[6]
  TGI: > 100 µM
[7]
  TGI: 66.2 µM
[8]
  TGI: > 100 µM

## CN(/N=C\c1ccnc2ccccc12)c1ccc([N+](=O)[O-])cc1
[1]
  TGI: > 100 µM
[2]
  TGI: > 100 µM
[3]
  TGI: > 100 µM
[4]
  TGI: > 100 µM
[5]
  TGI: > 100 µM
[6]
  TGI: > 100 µM
[7]
  TGI: > 100 µM
[8]
  TGI: 82.5 µM

## O=C(c1ccc(Cl)cc1)C(O)c1ccc(Cl)cc1 (centres undefined)
[1]
  TGI: > 100 µM
[2]
  TGI: > 100 µM
[3]
  TGI: > 100 µM
[4]
  TGI: > 100 µM
[10]
  TGI: > 100 µM
[5]
  TGI: > 100 µM
[6]
  TGI: 82.7 µM
[7]
  TGI: > 100 µM
[8]
  TGI: > 100 µM

## COC(=O)C1C(=O)O[C@@H](c2cc(OC)c(OC)cc2OC)C1C(=O)OC (mixture of isomers)
[1]
  TGI: > 100 µM
[2]
  TGI: > 100 µM
[3]
  TGI: > 100 µM
[4]
  TGI: > 100 µM
[5]
  TGI: > 100 µM
[6]
  TGI: > 100 µM
[7]
  TGI: > 100 µM
[8]
  TGI: > 100 µM

## COC1(OC)C2(Cl)C(Cl)=C(Cl)C1(Cl)C1C2C2CC1(C(=O)O)c1ccccc12 (centres undefined)
[1]
  TGI: 50.7 µM
[2]
  TGI: 32.1 µM
[3]
  TGI: 35.5 µM
[4]
  TGI: 52.5 µM
[5]
  TGI: 33.8 µM
[6]
  TGI: 43.1 µM
[7]
  TGI: 51.1 µM
[8]
  TGI: 27 µM

## COC(=O)[C@@H]1Cc2c([nH]c3ccccc23)[C@H](c2ccccc2)N1
[1]
  TGI: 91.8 µM
[2]
  TGI: > 100 µM
[3]
  TGI: > 100 µM
[4]
  TGI: > 100 µM
[5]
  TGI: > 100 µM
[6]
  TGI: > 100 µM
[7]
  TGI: 38.6 µM
[8]
  TGI: > 100 µM

## CNS(=O)(=O)NNS(=O)(=O)c1ccc(OC)cc1
[1]
  TGI: > 100 µM
[2]
  TGI: > 100 µM
[3]
  TGI: > 100 µM
[5]
  TGI: > 100 µM
[6]
  TGI: > 100 µM
[7]
  TGI: > 100 µM
[8]
  TGI: > 100 µM

## Cc1cc(C)c(-c2noc(-c3ccc(Cl)cc3)c2C2=NCCCN2)c(C)c1
[1]
  TGI: 43.6 µM
[2]
  TGI: 36.8 µM
[3]
  TGI: 25.8 µM
[4]
  TGI: 95.3 µM
[5]
  TGI: > 100 µM
[6]
  TGI: 48.7 µM
[7]
  TGI: 35.1 µM
[8]
  TGI: 73.9 µM

## COc1c(-c2ccccc2)nc2ccc(Oc3ccccc3)nn12
[1]
  TGI: > 100 µM
[2]
  TGI: > 92.6 µM
[3]
  TGI: > 100 µM
[4]
  TGI: 98.1 µM
[5]
  TGI: > 100 µM
[6]
  TGI: > 57.3 µM
[7]
  TGI: > 65 µM
[8]
  TGI: 99.3 µM

## O=C1/C(=C/c2ccc(Cl)cc2)CNC/C1=C\c1ccc(Cl)cc1
[1]
  TGI: 4 µM and 3.36 µM
[2]
  TGI: 20.5 µM and 16.8 µM
[3]
  GI50: 0.502 µM
  TGI: 3.67 µM and 1.78 µM
[10]
  TGI: 21.2 µM
[5]
  TGI: 3.07 µM and 3.85 µM
[6]
  GI50: 2.42 µM and 9.41 µM
[9]
  TGI: 36.1 µM
[7]
  GI50: 2.61 µM
  TGI: 4.25 µM and 8.35 µM
[8]
  GI50: 0.596 µM and 1.32 µM
  TGI: 10.3 µM and > 100 µM

## COc1cccc(Nc2nc3ccccc3c3occc23)c1
[1]
  GI50: 8.9 µM
  TGI: 21.8 µM
[3]
  GI50: 9.68 µM
  TGI: 27.1 µM
[10]
  GI50: 43.7 µM
  TGI: > 100 µM
[5]
  GI50: 15.3 µM
  TGI: 34.4 µM
[6]
  GI50: 45 µM
  TGI: > 100 µM
[9]
  GI50: 4.1 µM
  TGI: 22.8 µM
[7]
  GI50: 9.49 µM
  TGI: 22 µM

## COC1OC2COC(C)(C)OC2C(OC(C)=O)C1NC(=O)N(CCCl)N=O (centres undefined)
[1]
  TGI: > 100 µM
[2]
  TGI: > 100 µM
[3]
  TGI: > 100 µM
[4]
  TGI: > 100 µM
[5]
  TGI: > 100 µM
[6]
  TGI: 53.3 µM
[7]
  TGI: > 100 µM
[8]
  TGI: > 100 µM

## O=C(NCC1CCCO1)c1ccc(NC2=C(Cl)C(=O)N(Cc3ccccc3)C2=O)cc1 (centres undefined)
[1]
  GI50: 13.1 µM
  TGI: 27.1 µM
[3]
  GI50: 18.6 µM
  TGI: 40.7 µM
[4]
  GI50: 11.8 µM
  TGI: 26.7 µM
[10]
  GI50: 4.39 µM
  TGI: 26.6 µM
[5]
  GI50: 13.3 µM
  TGI: 26.2 µM
[6]
  GI50: 9.25 µM
  TGI: 25 µM
[9]
  GI50: 30.5 µM
  TGI: > 100 µM
[7]
  GI50: 23 µM
  TGI: 71.9 µM

## Cc1nc2c(o1)C(=Nc1ccccc1)c1nc(C)oc1C2=Nc1ccccc1
[1]
  TGI: 80.3 µM
[2]
  TGI: 41.6 µM
[3]
  TGI: 33.1 µM
[4]
  TGI: 53.6 µM
[5]
  TGI: 37.6 µM
[6]
  TGI: > 100 µM
[7]
  TGI: > 100 µM
[8]
  TGI: > 100 µM

## O=C(/C=C/c1cccc([N+](=O)[O-])c1)c1ccc([N+](=O)[O-])cc1
[1]
  TGI: > 100 µM
[2]
  TGI: > 100 µM
[3]
  TGI: > 100 µM
[4]
  TGI: > 100 µM
[5]
  TGI: > 100 µM
[6]
  TGI: > 100 µM
[7]
  TGI: > 100 µM
[8]
  TGI: > 100 µM
